“And” between values parts separate entries of the source, which are not always exact repeats. Identical values can stand only once. Results filed as inconclusive are left out.
Test system: BDF1 mice, colon carcinoma 38 sc, T/C %
Test: NCI In Vivo Anticancer Drug Screen. Data for tumor model Colon Carcinoma 38 (subcutaneous) in B6D2F1 (BDF1) mice
Conditions: endpoint: median tumor weight (est.), higher = larger tumour
Method in brief: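 Transplantable tumor in mice; compound-treated vs vehicle-dosed controls. Measured survival or tumor size; value = T ÷ C.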

[1] = dose: 25.0 mg/kg/injection, schedule: Q07DX002 (ip), vehicle: saline with Tween-80
[2] = dose: 50.0 mg/kg/injection, schedule: Q07DX002 (ip), vehicle: saline with Tween-80
[3] = dose: 1.25 mg/kg/injection, schedule: Q07DX002 (ip), vehicle: saline
[4] = dose: 2.5 mg/kg/injection, schedule: Q07DX002 (ip), vehicle: saline
[5] = dose: 5.0 mg/kg/injection, schedule: Q07DX002 (ip), vehicle: saline
[6] = dose: 10.0 mg/kg/injection, schedule: Q07DX002 (ip), vehicle: saline

## CC12CCC3C(CCC4CC(OC(=O)Cc5ccc(N(CCCl)CCCl)cc5)CCC43C)C1CCC(=O)N2 (centres undefined)
dose: 1.5 mg/kg/injection, schedule: Q07DX002 (ip), vehicle: saline with Tween-80
  T/C: 121 % of control
dose: 3.0 mg/kg/injection, schedule: Q07DX002 (ip), vehicle: saline with Tween-80
  T/C: 77 % of control and 91 % of control
dose: 6.0 mg/kg/injection, schedule: Q07DX002 (ip), vehicle: saline with Tween-80
  T/C: 47 % of control and 48 % of control
dose: 24.0 mg/kg/injection, schedule: Q07DX002 (ip), vehicle: saline with Tween-80
  T/C: 27 % of control and 33 % of control

## COC(=O)C[C@](O)(CCCC(C)(C)O)C(=O)O[C@@H]1C(OC)=C[C@]23CCCN2CCc2cc4c(cc2[C@H]13)OCO4
dose: 0.25 mg/kg/injection, schedule: Q07DX003 (ip), vehicle: saline
  T/C: 93 % of control
dose: 0.5 mg/kg/injection, schedule: Q07DX003 (ip), vehicle: saline
  T/C: 95 % of control
dose: 1.0 mg/kg/injection, schedule: Q07DX003 (ip), vehicle: saline
  T/C: 64 % of control
dose: 2.0 mg/kg/injection, schedule: Q07DX003 (ip), vehicle: saline
  T/C: 53 % of control

## CN1N=C(N)c2cn(C3OC(COP(=O)(O)O)C(O)C3O)c3ncnc1c23 (centres undefined)
dose: 6.25 mg/kg/injection, schedule: Q07DX002 (ip), vehicle: water
  T/C: 84 % of control
dose: 25.0 mg/kg/injection, schedule: Q07DX002 (ip), vehicle: water
  T/C: 68 % of control and 91 % of control
dose: 100.0 mg/kg/injection, schedule: Q07DX002 (ip), vehicle: water
  T/C: 73 % of control

## CS(=O)(=O)OCCCCOS(C)(=O)=O
dose: 32.0 mg/kg/injection, schedule: Q01DX005 (ip), vehicle: saline with Tween-80
  T/C: 15 % of control

## CCOC(=O)C1(c2ccccc2)C(=O)Oc2ccccc21 (centres undefined)
dose: 12.5 mg/kg/injection, schedule: Q07DX002 (ip), vehicle: saline with Tween-80
  T/C: 94 % of control
[1]
  T/C: 112 % of control and 87 % of control
[2]
  T/C: 61 % of control
dose: 400.0 mg/kg/injection, schedule: Q07DX002 (ip), vehicle: saline with Tween-80
  T/C: 107 % of control

## CN(C)C(=O)SC1=C(c2c(Cl)cccc2Cl)C(=O)c2ccccc21
dose: 50.0 mg/kg/injection, schedule: Q07DX002 (ip), vehicle: Klucel (hydroxypropylcellulose) (HPC)
  T/C: 76 % of control
dose: 100.0 mg/kg/injection, schedule: Q07DX002 (ip), vehicle: Klucel (hydroxypropylcellulose) (HPC)
  T/C: 94 % of control
dose: 200.0 mg/kg/injection, schedule: Q07DX002 (ip), vehicle: Klucel (hydroxypropylcellulose) (HPC)
  T/C: 86 % of control
dose: 400.0 mg/kg/injection, schedule: Q07DX002 (ip), vehicle: Klucel (hydroxypropylcellulose) (HPC)
  T/C: 82 % of control
dose: 800.0 mg/kg/injection, schedule: Q07DX002 (ip), vehicle: Klucel (hydroxypropylcellulose) (HPC)
  T/C: 91 % of control

## CC1(C)OCC(CO)(Nc2nc(N3CC3)nc(N3CC3)n2)CO1
[3]
  T/C: 72 % of control
dose: 1.25 mg/kg/injection, schedule: Q07DX003 (ip), vehicle: saline
  T/C: 166 % of control
[4]
  T/C: 75 % of control
dose: 2.5 mg/kg/injection, schedule: Q07DX003 (ip), vehicle: saline
  T/C: 111 % of control
[5]
  T/C: 65 % of control
dose: 5.0 mg/kg/injection, schedule: Q07DX003 (ip), vehicle: saline
  T/C: 49 % of control
[6]
  T/C: 15 % of control

## CC(=O)OCC1OC(OC(C)=O)C(NC(=O)N(CCCl)N=O)C(OC(C)=O)C1OC(C)=O (centres undefined)
dose: 0.75 mg/kg/injection, schedule: Q07DX002 (ip), vehicle: Klucel (hydroxypropylcellulose) (HPC)
  T/C: 100 % of control
dose: 1.5 mg/kg/injection, schedule: Q07DX002 (ip), vehicle: Klucel (hydroxypropylcellulose) (HPC)
  T/C: 82 % of control and 96 % of control
dose: 3.0 mg/kg/injection, schedule: Q07DX002 (ip), vehicle: Klucel (hydroxypropylcellulose) (HPC)
  T/C: 64 % of control

## Cc1nc(N)nc(N)c1-c1ccc(Cl)c(Cl)c1
[3]
  T/C: 106 % of control
[4]
  T/C: 81 % of control and 102 % of control
[5]
  T/C: 50 % of control and 72 % of control
[6]
  T/C: 68 % of control and 69 % of control and 83 % of control
dose: 10.0 mg/kg/injection, schedule: Q07DX002 (ip), vehicle: suspension in saline
  T/C: 67 % of control
dose: 20.0 mg/kg/injection, schedule: Q07DX002 (ip), vehicle: suspension in saline
  T/C: 46 % of control
dose: 80.0 mg/kg/injection, schedule: Q07DX002 (ip), vehicle: saline
  T/C: 55 % of control

## O=C(Nc1ccccc1C(=O)O)c1cc([N+](=O)[O-])cc([N+](=O)[O-])c1
[1]
  T/C: 110 % of control and 88 % of control
[2]
  T/C: 78 % of control and 85 % of control
dose: 100.0 mg/kg/injection, schedule: Q07DX002 (ip), vehicle: saline with Tween-80
  T/C: 69 % of control
dose: 200.0 mg/kg/injection, schedule: Q07DX002 (ip), vehicle: saline with Tween-80
  T/C: 83 % of control and 86 % of control

## CCCCNc1ccc2nnc(C)n2n1
dose: 25.0 mg/kg/injection, schedule: Q07DX002 (ip), vehicle: other
  T/C: 102 % of control
dose: 200.0 mg/kg/injection, schedule: Q07DX002 (ip), vehicle: other
  T/C: 98 % of control and 108 % of control

Reference: PubChem BioAssay AID212 (DTP/NCI, 2004)
